Results from patent publication US8476197B2, “Aminopropenoates as fungicides” (priority 2009, dated 2013).
Marks after values point to notes of the source that are not given here.

Details: pH 2.3

| SMILES | Log P |
| --- | --- |
| CC(C)C(C)NC(=C(C#N)C(=O)OC1CCC1)c1cccnc1Cl (stereo not shown) [Compound 1284] | 3.79^[c]; 3.79^[b] |
| COC(=O)C(C#N)=C(NCc1ccc(Cl)nc1)c1cccnc1Cl [Compound 338] | 2.11 |

Same assay, conditions: pH 2.7

| SMILES | Log P |
| --- | --- |
| CCOC(=O)C(C#N)=C(NC(C)C(C)C)c1c(C(F)F)nn(C)c1Cl (stereo not shown) [Compound 954] | 3.63^[a] |
| CCOC(=O)C(C#N)=C(NC(C)CF)c1cn(C)cc1C(F)(F)F (stereo not shown) [Compound 752] | 2.95^[a] |
| CCOC(=O)C(C#N)=C(NC(C)CC1CC1)c1cn(C)nc1C(F)F (stereo not shown) [Compound 1136] | 3.23^[a] |
| CCOC(=O)C(C#N)=C(NC(C)C1CC1)c1scnc1Cl (stereo not shown) [Compound 1466] | 2.02^[a] |
| CCOC(=O)C(C#N)=C(NC(C)C1CC1)c1cnn(C)c1C(F)F (stereo not shown) [Compound 1303] | 2.98^[a] |
| CCOC(=O)C(C#N)=C(NC1CC1CC)c1cccnc1Cl (stereo not shown) [Compound 1062] | 3.27^[a] |
| CCOC(=O)C(C#N)=C(NC(C)c1cscn1)c1ccncc1C(F)(F)F (mixture of isomers) [Compound 303] | 2.6^[a] |
| CCOC(=O)C(C#N)=C(NC(c1cncnc1C)C(C)C)c1cccnc1Cl (racemic) [Compound 1538] | 2.28^[a] |
| CCOC(=O)C(C#N)=C(NC(C)c1ccccn1)c1ccnc(Cl)c1F (stereo not shown) [Compound 1312] | 3^[a] |
| CCOC(=O)C(C#N)=C(Nc1ccccc1C(=O)C1CC1)c1cn(C)nc1C(F)F [Compound 1226] | 3^[a] |
| CCOC(=O)C(C#N)=C(NC(C)c1nccn1C)c1cccnc1Cl (stereo not shown) [Compound 1637] | 0.93^[a] |
| CCOC(=O)C(C#N)=C(NC1CC1C)c1cn(C)nc1C(F)F (stereo not shown) [Compound 1130] | 2.68^[a] |
| CCOC(=O)C(C#N)=C(NCC(c1ccccc1)C(C)C)c1cccnc1Cl (racemic) [Compound 545] | 4.21^[a] |
| CCOC(=O)C(C#N)=C(NC(C)Cc1c[nH]c2ccccc12)c1sccc1C(F)(F)F (stereo not shown) [Compound 108] | 3.94^[a] |
| CCOC(=O)C(C#N)=C(NC(C)c1sc(C)nc1C)c1cn(C)nc1C(F)F (racemic) [Compound 187] | 2.43^[a] |
| CCOC(=O)C(C#N)=C(NC(C)c1ccccc1F)c1cccnc1Cl (stereo not shown) [Compound 1532] | 3.48^[a] |

| SMILES | Log P |
| --- | --- |
| CCOC(=O)C(C#N)=C(NC(c1cncnc1C(F)(F)F)C(C)C)c1cccnc1Cl (racemic) [Compound 1557] | 3.55^[a] |
| CCOC(=O)C(C#N)=C(NC(C)c1ccc(Cl)cc1)c1sccc1Cl (stereo not shown) [Compound 434] | 4.4^[a] |
| CCCCCC(C)NC(=C(C#N)C(=O)OCC)c1sc(C)nc1C(F)(F)F (racemic) [Compound 858] | 4.81^[a] |
| CCOC(=O)C(C#N)=C(NCC#N)c1sccc1Br [Compound 789] | 2.33^[a] |
| CCOC(=O)C(C#N)=C(NC(C)C1CC1)c1ccnn1C(F)F (stereo not shown) [Compound 1647] | 3.01^[a] |
| CCOC(=O)C(C#N)=C(NC(C)c1ccc(C)cc1)c1cccnc1Cl (stereo not shown) [Compound 1150] | 3.87^[a] |
| CCOC(=O)C(C#N)=C(NC1(C(=O)OCC)CCC1)c1cccnc1Cl [Compound 1551] | 3.17^[a] |
| CCOC(=O)C(C#N)=C(NC(C)C)c1cn(C)nc1C(F)F [Compound 1419] | 2.53^[a] |
| CCOC(=O)C(C#N)=C(NC(C)c1nccs1)c1cccnc1C(F)F (racemic) [Compound 266] | 2.39^[a] |
| CCOC(=O)C(C#N)=C(NCc1ccccn1)c1ncc(C(F)(F)F)cc1Cl [Compound 42] | 2.98^[a] |
| COC(=O)C(C#N)=C(NC(C)C(C)(C)C)c1sc(C)nc1C(F)(F)F (racemic) [Compound 920] | 3.83^[a] |
| CCOC(=O)C(C#N)=C(Nc1ccc(N(C)C)cc1)c1sc(C)nc1C(F)(F)F [Compound 493] | 3.71^[a] |
| CCOC(=O)C(C#N)=C(NC(C)COc1ccccc1Cl)c1cn(C)nc1C(F)F (stereo not shown) [Compound 741] | 3.6^[a] |
| CCOC(=O)C(C#N)=C(NC(C(=O)NC)c1ccccc1)c1cn(C)nc1C(F)F (stereo not shown) [Compound 1137] | 2.27^[a] |
| CCOC(=O)C(C#N)=C(NC(C)C(C)C)c1ccnc(CC)c1Cl (stereo not shown) [Compound 1399] | 4.02^[a] |

Second part, the compound after the results:

| Log P | SMILES |
| --- | --- |
| 2.63^[a] | CCOC(=O)C(C#N)=C(NC(C)c1cncnc1C(F)(F)F)c1cccnc1Cl (stereo not shown) [Compound 1528] |
| 3.29^[a] | CCOC(=O)C(C#N)=C(NC(C)C(=O)OCC)c1sc(C)nc1C(F)(F)F (racemic) [Compound 679] |
| 3.37^[a] | CCOC(=O)C(C#N)=C(NCc1ccccc1SC)c1cccnc1Cl [Compound 1171] |
| 3.46^[a] | CCOC(=O)C(C#N)=C(NC(C)(C)C(C)(C)C)c1cn(C)nc1C(F)F [Compound 753] |
| 3.39^[a] | CCOC(=O)C(C#N)=C(NC(C(=O)OCC)c1ccccc1)c1cccnc1Cl (stereo not shown) [Compound 1379] |
| 3.15^[a] | CCCC(COCC)NC(=C(C#N)C(=O)OC)c1cccnc1Cl (stereo not shown) [Compound 626] |
| 3.23^[a] | CCOC(=O)C(C#N)=C(NC1(c2c(F)cccc2F)CC1)c1cn(C)nc1C(C)F (racemic) [Compound 549] |
| 3.1^[a] | CCOC(=O)C(C#N)=C(NC(C)c1cnc(Cl)s1)c1cccnc1Cl (stereo not shown) [Compound 1444] |
| 3.11^[a] | CCOC(=O)C(C#N)=C(NC(C)c1nccs1)c1ncc(Cl)cc1Cl (racemic) [Compound 225] |
| 2.42^[a] | CCOC(=O)C(C#N)=C(NC(C)c1nccs1)c1cnn(C)c1Cl (racemic) [Compound 1483] |
| 3.63^[a] | CCC1CCCCC1NC(=C(C#N)C(=O)OC)c1cccnc1Cl (stereo not shown) [Compound 1061] |
| 3.73^[a] | COC(=O)C(C#N)=C(NC(C)(C)C=C(Cl)Cl)c1sc(C)nc1C(F)(F)F [Compound 1104] |
| 3.99^[a] | CCOC(=O)C(C#N)=C(NC(C)c1ccccc1)c1sc(C)nc1C(F)(F)F (mixture of isomers) [Compound 452] |
| 2.96^[a] | CCOC(=O)C(C#N)=C(NC(C)(C)CC)c1cn(C)nc1C(F)F [Compound 1421] |
| 3.76^[a] | CCOC(=O)/C(C#N)=C(\NC(C)c1nc(C)c(C)s1)c1sccc1Cl (stereo not shown) [Compound 150] |
| 1.36^[a] | CCOC(=O)C(C#N)=C(NC(C)CN(C)C)c1cn(C)nc1C(F)(F)F (stereo not shown) [Compound 602] |
| 3.35^[a] | CCOC(=O)C(C#N)=C(NC(C)(C)c1ccc(OC)cc1)c1cn(C)nc1C(F)F [Compound 1229] |
| 3.33^[a] | COC(=O)C(C#N)=C(NC(C)(C)c1ccc(Cl)cc1)c1cccnc1Cl [Compound 337] |
| 4^[a] | CCOC(=O)C(C#N)=C(NC(C)c1c(Cl)cccc1Cl)c1scnc1Cl (stereo not shown) [Compound 1477] |
| 3.75^[a] | CCOC(=O)C(C#N)=C(NC(C)c1nc(C)c(C)s1)c1ccsc1I (racemic) [Compound 157] |
| 3.31^[a] | COC(=O)C(C#N)=C(Nc1ccc(OC(F)F)cc1)c1sc(C)nc1C(F)(F)F [Compound 515] |
| 4.26^[a] | CCOC(=O)C(C#N)=C(NC(C)COc1c(C)cccc1C)c1cccnc1Cl (stereo not shown) [Compound 1180] |

Same assay, conditions: pH 7.5

| SMILES | Log P |
| --- | --- |
| CC(C)C(C)NC(=C(C#N)C(=O)OC1CCC1)c1cccnc1Cl (stereo not shown) [Compound 1284] | 3.79^[c]; 3.79^[b] |
| COC(=O)C(C#N)=C(NCc1ccc(Cl)nc1)c1cccnc1Cl [Compound 338] | 2.1 |
| CCOC(=O)C(C#N)=C(NC(C)CSCC)c1cccnc1Cl (stereo not shown) [Compound 586] | 3.06 |
| CCNC(=O)C(C#N)=C(NC(C)c1nccs1)c1ccc(Cl)nc1Cl (stereo not shown) [Compound 1471] | 2.65 |
| CCOC(=O)C(C#N)=C(NC(C)c1ccccn1)c1ccc(Cl)nc1Cl (stereo not shown) [Compound 1381] | 3.06 |

Details: LogP, preparation examples; HPLC method ([a], [b] or [c]) not stated

| SMILES | chromatographic logP |
| --- | --- |
| CCOC(=O)/C(C#N)=C(\NC(C)c1ccc(Cl)nc1)c1cccnc1Cl (stereo not shown) [ethyl (2Z)-3-(2-chloropyridin-3-yl)-3-{[1-(6-chloropyridin-3-yl)ethyl]amino}-2-cyanoacrylate] | 2.8 |
| CCOC(=O)/C(C#N)=C(\NCC(c1ccccc1)C(C)C)c1cccnc1Cl (stereo not shown) [ethyl (2Z)-3-(2-chloropyridin-3-yl)-2-cyano-3-[(3-methyl-2-phenylbutyl)amino]acrylate] | 4.21 |
| CC(N/C(=C(/C#N)C(=O)NC1CC1)c1cn(C)nc1C(F)F)c1nccs1 (stereo not shown) [(2Z)-2-cyano-N-cyclopropyl-3-[3-(difluoromethyl)-1-methyl-1H-pyrazol-4-yl]-3-{[1-(1,3-thiazol-2-yl)ethyl]amino}acrylamide] | 2.04 |
| CCNC(=S)/C(C#N)=C(\NC1CC1CC)c1cccnc1Cl (stereo not shown) [(2Z)-3-(2-chloropyridin-3-yl)-2-cyano-N-ethyl-3-[(2-ethylcyclopropyl)amino]-prop-2-enethioamide] | 3.87 |
| CCOC(=O)C(C#N)=C(Cl)c1scc(C)c1Cl [ethyl 3-chloro-3-(3-chloro-4-methyl-2-thienyl)-2-cyanoacrylate] | 3.65 |
| CCN/C(=C(/C#N)C(=O)OCC)c1cccnc1-c1ccc(Cl)cc1 [ethyl (2Z)-3-[2-(4-chlorophenyl)pyridin-3-yl]-2-cyano-3-(ethylamino)acrylate] | 2.96 |
| CC(N/C(=C(/C#N)C(=O)O)c1sccc1Br)c1nccs1 (stereo not shown) [(2Z)-3-(3-bromo-2-thienyl)-2-cyano-3-{[1-(1,3-thiazol-2-yl)ethyl]amino}acrylic acid] | 1.23 |
| CC(C)NC(=O)/C(C#N)=C(\NC(C)c1nccs1)c1sccc1Br (stereo not shown) | 3.11 |
| CCOC(=O)/C(C#N)=C(\N[C@H](C)C(=O)NC)c1scc(C)c1Cl [ethyl (2Z)-3-(3-chloro-4-methyl-2-thienyl)-2-cyano-3-{[(2R)-1-(methylamino)-1-oxopropan-2-yl]amino}acrylate] | 3.61 |
| CCC1CC1N/C(=C/C#N)c1cccnc1Cl (stereo not shown) [3-(2-chloropyridin-3-yl)-3-[(2-ethylcyclopropyl)amino]acrylonitrile] | 2.53 |
| N#CC=C(Cl)c1cccnc1Cl [3-chloro-3-(2-chloropyridin-3-yl)acrylonitrile] | 1.94 |

Same assay, conditions: preparation examples; HPLC method ([a], [b] or [c]) not stated

| SMILES | LogP |
| --- | --- |
| CCOC(=O)C(C#N)=C(Cl)c1scc(C)c1Cl [ethyl 3-chloro-3-(3-chloro-4-methyl-2-thienyl)-2-cyanoacrylate] | 3.70 |
| N#CC=C(Cl)c1cccnc1Cl [3-chloro-3-(2-chloropyridin-3-yl)acrylonitrile] | 2.03 |
